Source: ChEMBL document CHEMBL1201862, “PubChem BioAssay data set” (2004)
Each block holds one compound with its values, some of them ahead of it. Activity calls are given as the source filed them.

How the values were obtained:
[1] = target: Cysteine protease ATG4B (Homo sapiens, UniProt Q9Y4P1); experiment: autophagin-1 cysteine protease inhibition – biochemical, fluorescence, set 2, dose response (AID 588584); assay type: functional
[2] = target: Phospholipase A2 (Homo sapiens, UniProt P04054); experiment: phospholipase A2 activity inhibition – biochemical, set 2, counter-screen for ATG4B inhibitor project, dose response (AID 588586); assay type: functional
[3] = Luminescence Cell-Based Dose Retest to Confirm Inhibitors of Cancer Stem Cells. [Related pubchem assays (depositor defined):AID2717, AID2721]; assay type: functional; conditions: Homo sapiens
[4] = target: T1, Tyrosine-protein phosphatase non-receptor type 7 (Homo sapiens, UniProt P35236); assay type: functional
T1 sequence (P35236 whole entry): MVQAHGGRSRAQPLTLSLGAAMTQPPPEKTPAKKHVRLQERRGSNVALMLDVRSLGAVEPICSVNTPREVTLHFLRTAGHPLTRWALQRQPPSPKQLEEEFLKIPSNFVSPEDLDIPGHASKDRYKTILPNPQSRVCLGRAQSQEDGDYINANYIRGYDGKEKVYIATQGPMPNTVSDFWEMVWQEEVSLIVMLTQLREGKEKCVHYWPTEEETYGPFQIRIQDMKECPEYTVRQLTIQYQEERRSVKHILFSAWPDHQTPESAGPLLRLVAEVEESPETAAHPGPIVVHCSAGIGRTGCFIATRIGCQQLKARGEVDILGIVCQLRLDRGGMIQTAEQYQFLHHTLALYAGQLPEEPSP

[5] = target: T2, Tyrosine-protein phosphatase non-receptor type 22 (Homo sapiens, UniProt Q9Y2R2); experiment: SAR LYP1 Fluorescent Assay using pCAP substrate for In Vitro dose response studies - Set 2. [Related pubchem assays (depositor defined):AID1779, AID1784, AID2135, AID449727]; assay type: functional
T2 sequence (Q9Y2R2 whole entry): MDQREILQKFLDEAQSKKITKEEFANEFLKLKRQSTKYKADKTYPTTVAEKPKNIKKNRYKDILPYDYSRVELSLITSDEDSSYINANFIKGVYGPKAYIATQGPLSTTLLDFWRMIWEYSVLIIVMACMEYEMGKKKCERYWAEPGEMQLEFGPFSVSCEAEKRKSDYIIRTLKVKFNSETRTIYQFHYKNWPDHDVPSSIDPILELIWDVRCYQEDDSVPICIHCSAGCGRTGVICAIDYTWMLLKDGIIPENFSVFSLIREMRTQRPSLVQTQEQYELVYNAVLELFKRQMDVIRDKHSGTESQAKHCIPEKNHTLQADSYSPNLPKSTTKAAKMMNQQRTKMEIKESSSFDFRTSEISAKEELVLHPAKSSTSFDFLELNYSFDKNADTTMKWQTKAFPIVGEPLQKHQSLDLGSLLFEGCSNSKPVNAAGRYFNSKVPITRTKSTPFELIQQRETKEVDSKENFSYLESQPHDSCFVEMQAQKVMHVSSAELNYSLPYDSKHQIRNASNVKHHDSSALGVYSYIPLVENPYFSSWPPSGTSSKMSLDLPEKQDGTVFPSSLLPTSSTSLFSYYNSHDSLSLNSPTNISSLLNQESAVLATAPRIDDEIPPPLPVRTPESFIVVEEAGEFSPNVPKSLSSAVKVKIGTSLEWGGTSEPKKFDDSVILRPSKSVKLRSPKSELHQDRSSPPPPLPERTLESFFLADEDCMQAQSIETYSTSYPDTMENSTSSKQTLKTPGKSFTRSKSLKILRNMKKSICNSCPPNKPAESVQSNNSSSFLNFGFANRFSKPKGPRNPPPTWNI

[6] = target: T2, Tyrosine-protein phosphatase non-receptor type 22; assay type: functional
[7] = target: T3, Apoptotic protease-activating factor 1 (Homo sapiens, UniProt O14727); experiment: activation of Apaf-1 mediated apoptosis – fluorescent, uHTS hits, dose response (AID 588554); assay type: functional
T3 sequence (O14727 whole entry): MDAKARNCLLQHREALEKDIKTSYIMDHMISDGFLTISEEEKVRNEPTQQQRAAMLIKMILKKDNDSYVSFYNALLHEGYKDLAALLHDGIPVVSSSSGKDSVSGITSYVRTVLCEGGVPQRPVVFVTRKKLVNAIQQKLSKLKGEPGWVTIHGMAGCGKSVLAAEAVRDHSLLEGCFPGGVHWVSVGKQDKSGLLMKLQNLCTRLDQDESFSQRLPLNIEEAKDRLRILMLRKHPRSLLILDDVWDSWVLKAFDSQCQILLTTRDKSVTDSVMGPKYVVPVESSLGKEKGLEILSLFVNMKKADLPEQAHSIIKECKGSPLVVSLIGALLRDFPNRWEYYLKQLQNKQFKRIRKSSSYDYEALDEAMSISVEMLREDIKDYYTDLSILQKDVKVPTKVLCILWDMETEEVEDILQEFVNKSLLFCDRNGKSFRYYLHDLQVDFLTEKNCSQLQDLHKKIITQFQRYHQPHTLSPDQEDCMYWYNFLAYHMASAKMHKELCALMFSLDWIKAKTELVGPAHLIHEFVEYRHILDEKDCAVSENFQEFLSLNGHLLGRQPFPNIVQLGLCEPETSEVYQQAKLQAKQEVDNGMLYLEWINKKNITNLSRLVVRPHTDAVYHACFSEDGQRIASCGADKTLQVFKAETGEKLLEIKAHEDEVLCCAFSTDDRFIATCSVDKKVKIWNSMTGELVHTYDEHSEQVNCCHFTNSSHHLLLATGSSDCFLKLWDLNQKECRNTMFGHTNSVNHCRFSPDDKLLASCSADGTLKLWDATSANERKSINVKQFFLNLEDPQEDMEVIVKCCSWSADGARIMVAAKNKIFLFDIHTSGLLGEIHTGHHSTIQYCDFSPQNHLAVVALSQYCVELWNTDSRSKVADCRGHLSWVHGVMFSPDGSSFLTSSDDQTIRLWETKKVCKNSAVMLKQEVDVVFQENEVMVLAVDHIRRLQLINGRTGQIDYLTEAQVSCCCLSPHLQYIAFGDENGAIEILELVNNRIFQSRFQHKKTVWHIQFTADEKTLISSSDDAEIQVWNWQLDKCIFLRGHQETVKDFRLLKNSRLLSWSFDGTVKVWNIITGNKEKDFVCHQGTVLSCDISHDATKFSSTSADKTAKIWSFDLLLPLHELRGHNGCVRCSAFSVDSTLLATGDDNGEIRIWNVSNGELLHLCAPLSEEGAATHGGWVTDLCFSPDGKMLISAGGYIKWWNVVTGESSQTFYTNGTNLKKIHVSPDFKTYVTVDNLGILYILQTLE

[8] = target: T2, Tyrosine-protein phosphatase non-receptor type 22; experiment: SAR LYP1 Fluorescent Assay using OMFP substrate for In Vitro dose response studies - Set 3. [Related pubchem assays (depositor defined):AID1779, AID1784, AID2140, AID2686]; assay type: functional
[9] = target: T2, Tyrosine-protein phosphatase non-receptor type 22; experiment: PubChem AID 2140
[10] = target: T2, Tyrosine-protein phosphatase non-receptor type 22; experiment: PTPN22 lymphoid phosphatase activity blockers – biochemical, fluorescence intensity, uHTS (AID 1779)
[11] = target: T2, Tyrosine-protein phosphatase non-receptor type 22; experiment: SAR LYP1 Fluorescent Assay using OMFP substrate for In Vitro dose response studies - Set 2. [Related pubchem assays (depositor defined):AID1779, AID1784, AID2140, AID449726, AID488869]; assay type: functional
[12] = target: T4, Heat shock factor protein 1 (Mus musculus, UniProt P38532); experiment: enhancement of HSF1-driven luciferase signal – cell-based, NIH3T3, luminescence, dose retest, confirmation (AID 435004); assay type: functional;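 note: stress induced by proteasome inhibitor MG132 added 30 min after compound; luciferase reporter driven by HSF1 response element in NIH3T3 cells; actives raise luminescence as potentiators of the MG132 stress response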
T4 sequence (P38532 whole entry): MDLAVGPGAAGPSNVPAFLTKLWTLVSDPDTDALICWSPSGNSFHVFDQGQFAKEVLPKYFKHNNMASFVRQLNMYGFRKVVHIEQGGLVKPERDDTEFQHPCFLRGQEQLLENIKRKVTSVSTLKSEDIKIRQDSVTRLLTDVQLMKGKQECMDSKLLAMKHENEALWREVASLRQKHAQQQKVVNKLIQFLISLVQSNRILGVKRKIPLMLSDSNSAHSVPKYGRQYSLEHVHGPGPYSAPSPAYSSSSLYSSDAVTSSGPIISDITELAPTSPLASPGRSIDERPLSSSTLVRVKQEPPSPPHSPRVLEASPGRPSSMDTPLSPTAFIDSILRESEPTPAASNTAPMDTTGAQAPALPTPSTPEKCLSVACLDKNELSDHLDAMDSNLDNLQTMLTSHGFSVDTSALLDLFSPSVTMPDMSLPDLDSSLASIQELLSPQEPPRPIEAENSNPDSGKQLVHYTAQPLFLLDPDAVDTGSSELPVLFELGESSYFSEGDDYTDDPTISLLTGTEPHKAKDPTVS

[13] = target: T2, Tyrosine-protein phosphatase non-receptor type 22; experiment: PubChem AID 2135
[14] = target: T2, Tyrosine-protein phosphatase non-receptor type 22; assay type: functional; remark: listed apart in the source
[15] = target: Tyrosine-protein phosphatase non-receptor type 12 (Homo sapiens, UniProt Q05209); experiment: SAR Selectivity Analysis of small molecule inhibitors of PEST using pCAP in a fluorescence assay. [Related pubchem assays (depositor defined):AID1779, AID1784, AID2135]; assay type: functional
[16] = target: T1, Tyrosine-protein phosphatase non-receptor type 7; experiment: inhibition of hematopoietic tyrosine phosphatase HePTP – biochemical, set 2, SAR follow-up (AID 449736); assay type: functional
[17] = test system: Escherichia coli; experiment: microbe, parasite or virus in culture
[18] = target: T5, Corticotropin-releasing factor receptor 2/Corticotropin-releasing factor-binding protein (Homo sapiens, UniProt P24387+Q13324); experiment: Dose Response confirmation of uHTS hits for small molecule antagonists of the CRF-binding protein and CRF-R2 receptor complex.; assay type: functional; conditions: read-out: IC50_Mean
T5 sequence (Q13324 whole entry): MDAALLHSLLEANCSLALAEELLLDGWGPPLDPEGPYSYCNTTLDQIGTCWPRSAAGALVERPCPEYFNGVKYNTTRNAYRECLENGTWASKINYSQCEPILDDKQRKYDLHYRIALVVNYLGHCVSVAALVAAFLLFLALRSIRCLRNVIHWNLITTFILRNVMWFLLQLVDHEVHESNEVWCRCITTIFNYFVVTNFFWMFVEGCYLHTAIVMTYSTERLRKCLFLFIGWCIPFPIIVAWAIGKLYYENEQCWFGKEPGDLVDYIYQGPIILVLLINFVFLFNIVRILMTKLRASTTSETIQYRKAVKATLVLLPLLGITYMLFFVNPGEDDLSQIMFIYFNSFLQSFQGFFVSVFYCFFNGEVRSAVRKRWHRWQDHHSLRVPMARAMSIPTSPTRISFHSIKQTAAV
T5 sequence (P24387 whole entry): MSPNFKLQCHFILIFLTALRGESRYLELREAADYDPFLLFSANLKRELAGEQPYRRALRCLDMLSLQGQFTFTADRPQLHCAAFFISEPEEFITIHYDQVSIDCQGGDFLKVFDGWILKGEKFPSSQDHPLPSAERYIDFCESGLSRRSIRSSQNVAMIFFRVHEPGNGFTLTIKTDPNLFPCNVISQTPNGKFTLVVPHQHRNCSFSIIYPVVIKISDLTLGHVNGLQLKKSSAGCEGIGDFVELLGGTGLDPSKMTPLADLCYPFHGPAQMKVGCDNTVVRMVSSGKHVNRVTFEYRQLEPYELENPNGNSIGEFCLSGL

[19] = target: T6, Fatty acid synthase (Homo sapiens, UniProt P49327); experiment: inhibition of human FAS-TE enzyme activity – biochemical, kinetic fluorescence intensity, dose response (AID 624326); assay type: functional;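 note: rate of fluorescence rise from hydrolysis of a fluorogenic O-methyl fluorescein ester substrate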
[20] = target: T6, Fatty acid synthase; experiment: inhibition of human FAS-TE enzyme activity – biochemical, endpoint fluorescence intensity, uHTS hits, dose response (AID 624327); assay type: functional;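 note: fluorescence from hydrolysis of an O-methyl fluorescein acyl ester substrate by the enzyme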
[21] = target: Keap1/Nrf2 (Homo sapiens, UniProt Q14145); experiment: disruptors of Keap1 binding to Nrf2 peptide – biochemical, fluorescence polarization, cherry-picked samples, dose response (AID 588683)
[22] = target: T5, Corticotropin-releasing factor receptor 2/Corticotropin-releasing factor-binding protein; experiment: activators of CRF receptor 2 with binding protein – uHTS hits, confirmation (AID 602473); assay type: functional; conditions: read-out: EC50_Mean

T6 sequence (P49327 whole entry): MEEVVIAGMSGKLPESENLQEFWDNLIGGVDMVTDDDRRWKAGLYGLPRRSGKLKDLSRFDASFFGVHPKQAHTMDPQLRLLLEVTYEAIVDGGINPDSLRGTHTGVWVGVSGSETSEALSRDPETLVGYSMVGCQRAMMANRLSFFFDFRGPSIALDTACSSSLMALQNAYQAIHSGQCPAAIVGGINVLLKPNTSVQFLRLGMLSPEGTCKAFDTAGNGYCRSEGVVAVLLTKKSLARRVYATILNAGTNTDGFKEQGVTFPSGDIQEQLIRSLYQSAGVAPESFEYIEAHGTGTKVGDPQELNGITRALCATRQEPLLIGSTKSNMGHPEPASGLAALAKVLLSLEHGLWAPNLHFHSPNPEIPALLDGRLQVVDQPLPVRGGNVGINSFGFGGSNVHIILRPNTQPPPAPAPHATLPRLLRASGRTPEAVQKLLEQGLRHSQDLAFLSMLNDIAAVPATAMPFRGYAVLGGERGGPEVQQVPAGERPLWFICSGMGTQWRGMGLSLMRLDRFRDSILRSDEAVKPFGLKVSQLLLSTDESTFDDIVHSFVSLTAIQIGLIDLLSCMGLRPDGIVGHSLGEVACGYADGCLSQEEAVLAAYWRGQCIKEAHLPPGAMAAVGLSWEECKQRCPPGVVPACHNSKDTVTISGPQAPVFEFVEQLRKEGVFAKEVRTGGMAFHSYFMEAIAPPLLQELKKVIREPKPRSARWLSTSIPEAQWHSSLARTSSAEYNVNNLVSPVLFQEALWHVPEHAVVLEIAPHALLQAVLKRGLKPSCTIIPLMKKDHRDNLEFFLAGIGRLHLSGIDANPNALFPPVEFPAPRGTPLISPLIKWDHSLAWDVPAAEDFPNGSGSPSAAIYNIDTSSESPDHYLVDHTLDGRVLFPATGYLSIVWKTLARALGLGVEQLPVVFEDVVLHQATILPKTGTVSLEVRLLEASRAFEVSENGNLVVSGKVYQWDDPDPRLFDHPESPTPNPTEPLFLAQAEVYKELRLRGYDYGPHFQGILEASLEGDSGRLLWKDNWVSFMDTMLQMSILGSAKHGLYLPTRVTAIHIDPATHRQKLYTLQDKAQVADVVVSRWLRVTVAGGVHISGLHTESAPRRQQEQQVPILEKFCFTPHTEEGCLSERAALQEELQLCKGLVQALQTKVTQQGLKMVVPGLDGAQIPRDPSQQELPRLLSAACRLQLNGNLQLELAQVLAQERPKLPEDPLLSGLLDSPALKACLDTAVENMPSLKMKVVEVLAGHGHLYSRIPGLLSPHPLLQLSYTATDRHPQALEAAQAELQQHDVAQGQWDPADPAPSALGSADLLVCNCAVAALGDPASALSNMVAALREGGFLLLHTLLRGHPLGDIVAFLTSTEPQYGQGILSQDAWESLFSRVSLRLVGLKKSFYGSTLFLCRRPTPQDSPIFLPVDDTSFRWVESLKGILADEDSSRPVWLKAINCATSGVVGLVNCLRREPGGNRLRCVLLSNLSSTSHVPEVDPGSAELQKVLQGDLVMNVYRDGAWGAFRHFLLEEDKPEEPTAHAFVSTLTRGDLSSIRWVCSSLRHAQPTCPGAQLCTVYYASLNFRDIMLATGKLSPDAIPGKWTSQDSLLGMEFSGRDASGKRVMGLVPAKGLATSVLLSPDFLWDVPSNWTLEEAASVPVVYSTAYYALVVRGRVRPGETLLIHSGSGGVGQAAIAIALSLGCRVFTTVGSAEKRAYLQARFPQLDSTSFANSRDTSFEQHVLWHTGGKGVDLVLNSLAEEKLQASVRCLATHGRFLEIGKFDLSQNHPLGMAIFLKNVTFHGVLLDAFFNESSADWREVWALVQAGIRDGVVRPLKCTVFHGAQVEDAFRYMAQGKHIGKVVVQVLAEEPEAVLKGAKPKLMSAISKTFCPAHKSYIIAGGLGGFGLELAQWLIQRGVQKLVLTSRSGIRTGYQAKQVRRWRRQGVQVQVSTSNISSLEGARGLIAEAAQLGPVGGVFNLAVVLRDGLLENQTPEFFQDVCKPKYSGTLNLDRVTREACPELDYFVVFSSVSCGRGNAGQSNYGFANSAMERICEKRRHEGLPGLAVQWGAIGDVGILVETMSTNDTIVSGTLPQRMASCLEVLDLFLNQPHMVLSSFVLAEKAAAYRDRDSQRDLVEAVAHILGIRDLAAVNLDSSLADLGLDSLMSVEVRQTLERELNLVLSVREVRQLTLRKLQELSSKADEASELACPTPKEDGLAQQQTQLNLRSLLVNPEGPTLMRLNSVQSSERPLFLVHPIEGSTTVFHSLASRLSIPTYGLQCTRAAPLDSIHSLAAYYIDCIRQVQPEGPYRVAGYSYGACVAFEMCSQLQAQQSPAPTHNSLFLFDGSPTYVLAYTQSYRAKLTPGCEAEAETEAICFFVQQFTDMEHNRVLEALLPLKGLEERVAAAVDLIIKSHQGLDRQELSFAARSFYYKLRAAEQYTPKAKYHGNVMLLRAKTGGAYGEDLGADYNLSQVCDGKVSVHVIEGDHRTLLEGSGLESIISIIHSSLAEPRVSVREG
Sequence of Phospholipase A2 (P04054 whole entry): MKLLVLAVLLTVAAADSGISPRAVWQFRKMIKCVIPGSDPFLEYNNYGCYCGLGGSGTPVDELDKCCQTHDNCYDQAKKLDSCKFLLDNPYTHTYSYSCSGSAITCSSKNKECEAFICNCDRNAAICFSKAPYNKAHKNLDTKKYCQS
Sequence of Tyrosine-protein phosphatase non-receptor type 12 (Q05209 whole entry): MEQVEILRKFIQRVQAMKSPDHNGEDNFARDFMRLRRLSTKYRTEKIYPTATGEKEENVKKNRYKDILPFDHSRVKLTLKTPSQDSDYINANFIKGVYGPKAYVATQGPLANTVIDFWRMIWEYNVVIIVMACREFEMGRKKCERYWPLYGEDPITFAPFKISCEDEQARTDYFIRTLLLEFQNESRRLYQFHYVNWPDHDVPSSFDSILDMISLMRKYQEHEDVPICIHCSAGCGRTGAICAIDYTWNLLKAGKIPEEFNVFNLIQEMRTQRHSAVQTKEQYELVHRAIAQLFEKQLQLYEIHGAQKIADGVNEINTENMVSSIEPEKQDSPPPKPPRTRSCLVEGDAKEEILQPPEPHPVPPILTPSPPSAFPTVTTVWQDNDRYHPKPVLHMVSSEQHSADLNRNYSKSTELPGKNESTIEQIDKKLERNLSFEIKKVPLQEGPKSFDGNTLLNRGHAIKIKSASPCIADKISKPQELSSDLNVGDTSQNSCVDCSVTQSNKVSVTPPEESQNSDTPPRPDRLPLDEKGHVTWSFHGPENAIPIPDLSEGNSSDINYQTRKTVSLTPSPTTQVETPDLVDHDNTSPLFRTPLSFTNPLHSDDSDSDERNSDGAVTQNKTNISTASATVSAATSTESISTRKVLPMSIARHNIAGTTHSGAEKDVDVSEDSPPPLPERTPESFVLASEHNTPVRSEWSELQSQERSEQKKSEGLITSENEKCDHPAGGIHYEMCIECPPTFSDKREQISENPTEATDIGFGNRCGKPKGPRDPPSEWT
Sequence of Keap1/Nrf2 (Q16236 whole entry): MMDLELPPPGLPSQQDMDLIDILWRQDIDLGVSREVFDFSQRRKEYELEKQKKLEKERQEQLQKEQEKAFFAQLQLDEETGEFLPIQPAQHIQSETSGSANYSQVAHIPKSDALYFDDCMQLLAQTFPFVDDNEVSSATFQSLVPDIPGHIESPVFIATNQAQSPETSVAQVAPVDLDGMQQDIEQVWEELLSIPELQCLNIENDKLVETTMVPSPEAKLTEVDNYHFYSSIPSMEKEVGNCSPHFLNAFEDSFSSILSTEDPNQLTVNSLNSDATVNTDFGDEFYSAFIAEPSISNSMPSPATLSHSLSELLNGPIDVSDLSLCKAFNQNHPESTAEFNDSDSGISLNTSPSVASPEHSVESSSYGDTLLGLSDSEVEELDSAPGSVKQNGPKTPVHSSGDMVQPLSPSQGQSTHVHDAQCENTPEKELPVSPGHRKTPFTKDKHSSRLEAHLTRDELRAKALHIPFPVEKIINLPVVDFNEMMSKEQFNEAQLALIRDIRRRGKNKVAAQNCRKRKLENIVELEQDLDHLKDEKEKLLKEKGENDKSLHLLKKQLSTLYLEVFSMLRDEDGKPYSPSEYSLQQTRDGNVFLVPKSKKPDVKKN
Sequence of Keap1/Nrf2 (Q14145 whole entry): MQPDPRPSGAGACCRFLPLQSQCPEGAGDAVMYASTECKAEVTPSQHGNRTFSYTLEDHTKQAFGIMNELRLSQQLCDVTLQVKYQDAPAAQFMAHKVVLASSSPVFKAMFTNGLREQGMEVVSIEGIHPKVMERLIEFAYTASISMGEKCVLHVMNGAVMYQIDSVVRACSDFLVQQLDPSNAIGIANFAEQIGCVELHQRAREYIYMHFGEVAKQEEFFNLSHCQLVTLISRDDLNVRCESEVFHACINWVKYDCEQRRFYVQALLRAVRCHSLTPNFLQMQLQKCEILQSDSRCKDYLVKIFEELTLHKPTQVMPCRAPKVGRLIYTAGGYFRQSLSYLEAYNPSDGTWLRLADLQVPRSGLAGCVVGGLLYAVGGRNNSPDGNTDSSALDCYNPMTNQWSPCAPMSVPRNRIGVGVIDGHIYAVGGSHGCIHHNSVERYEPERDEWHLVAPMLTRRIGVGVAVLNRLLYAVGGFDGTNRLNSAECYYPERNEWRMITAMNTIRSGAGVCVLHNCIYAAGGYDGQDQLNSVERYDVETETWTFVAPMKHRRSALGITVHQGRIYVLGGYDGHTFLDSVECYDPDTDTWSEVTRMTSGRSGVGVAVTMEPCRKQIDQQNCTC
Sequence of Cysteine protease ATG4B (Q9Y4P1 whole entry): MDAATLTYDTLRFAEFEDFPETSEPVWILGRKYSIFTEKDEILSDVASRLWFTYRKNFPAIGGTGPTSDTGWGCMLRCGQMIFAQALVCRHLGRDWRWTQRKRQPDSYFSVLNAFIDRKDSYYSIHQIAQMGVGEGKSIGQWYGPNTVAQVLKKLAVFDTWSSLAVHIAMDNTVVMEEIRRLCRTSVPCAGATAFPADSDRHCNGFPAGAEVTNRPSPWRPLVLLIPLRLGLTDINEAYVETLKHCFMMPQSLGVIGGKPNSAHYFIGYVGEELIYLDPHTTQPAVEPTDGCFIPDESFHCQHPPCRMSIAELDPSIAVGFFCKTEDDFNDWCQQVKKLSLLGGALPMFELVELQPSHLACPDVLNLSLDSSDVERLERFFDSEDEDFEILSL

Compound: COc1ccc(OC)c(NC(=O)c2nnn(Cc3ccccc3C)c2N)c1
IC50 [1]: 19.9 µM (active)
IC50 [2]: 13.4 µM (active)
AC50 [3]: 2.47 µM (active)

IC50 [4]: 14.6 µM (active)
IC50 [5]: 6.54 µM (active)
IC50 [6]: 6.42 µM (active)
EC50 [7]: 20.8 µM (active)
IC50 [8]: 4.74 µM (active)
IC50 [9]: 34.2 µM (active)
IC50 [10]: 8.62 µM (active)
IC50 [11]: 3.77 µM (active)
EC50 [12]: 10.9 µM (active)
IC50 [13]: 4.96 µM (active)
IC50 [14]: 6.86 µM (active)
IC50 [15]: 2.91 µM (active)
IC50 [16]: 0.651 µM (active)
Compound: N#C/C(=C\c1ccc(OCc2ccc(Cl)cc2)cc1)C(=O)Nc1cccc(C(=O)O)c1

Compound: CCn1c(=O)c2c3c(sc2n2c(S)nnc12)CCC3
AC50 [17]: 24.2 µM (active)

IC50 [18]: 0.754 µM (active)
IC50 [19]: 9.07 µM (active)
IC50 [20]: 13.3 µM (active)
AC50 [21]: 25.7 µM (active)
EC50 [22]: 38.6 µM (active)
Compound: COc1ccc(C(C)=NNc2ccc([N+](=O)[O-])cc2S(=O)(=O)Nc2ccccc2C(=O)O)c(OC)c1
